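Results reflect a 48-hour exposure of cells in 96-well plates to compound at five concentrations. Abbreviation: GI50, concentration required for 50% inhibition of growth.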 Calls of active or inactive are those of the source. Rule as the data show it: active = GI50 up to about 1.1 µM and inactive = higher.
Legend:
Assay in all cases: inhibition of tumour cell growth, NCI panel, 48 h
Hs-578T = tested on: Hs-578T
M14 = tested on: M14
HT-29 = tested on: HT-29
NCI-H23 = tested on: NCI-H23
UACC-257 = tested on: UACC-257
UO-31 = tested on: UO-31
K562 = tested on: K562
COLO 205 = tested on: COLO 205
ACHN = tested on: ACHN
OVCAR-4 = tested on: OVCAR-4
NCI-H226 = tested on: NCI-H226
OVCAR-3 = tested on: OVCAR-3
OVCAR-5 = tested on: OVCAR-5
A498 = tested on: A498
NCI-H460 = tested on: NCI-H460
SNB-19 = tested on: SNB-19
A549 = tested on: A549
SNB-75 = tested on: SNB-75
SK-MEL-5 = tested on: SK-MEL-5
UACC-62 = tested on: UACC-62
NCI/ADR-RES = tested on: NCI/ADR-RES
IGROV-1 = tested on: IGROV-1
MCF7 = tested on: MCF7
RXF 393 = tested on: RXF 393
PC-3 = tested on: PC-3
HCT-116 = tested on: HCT-116
SN12C = tested on: SN12C
EKVX = tested on: EKVX
TK-10 = tested on: TK-10
LOX IMVI = tested on: LOX IMVI
NCI-H522 = tested on: NCI-H522
SF-268 = tested on: SF-268
HOP-62 = tested on: HOP-62
T47D = tested on: T47D
SF-295 = tested on: SF-295
MDA-MB-231 = tested on: MDA-MB-231
OVCAR-8 = tested on: OVCAR-8
SK-MEL-2 = tested on: SK-MEL-2
SK-OV-3 = tested on: SK-OV-3
SF-539 = tested on: SF-539
SK-MEL-28 = tested on: SK-MEL-28
SW-620 = tested on: SW-620
DU-145 = tested on: DU-145
SR = tested on: SR
CAKI-1 = tested on: CAKI-1
RPMI-8226 = tested on: RPMI-8226
MDA-N = tested on: MDA-N
HCT-15 = tested on: HCT-15
CCRF-CEM = tested on: CCRF-CEM
Malme-3M = tested on: Malme-3M
HOP-92 = tested on: HOP-92
786-0 = tested on: 786-0
KM12 = tested on: KM12
HCC 2998 = tested on: HCC 2998
MDA-MB-435 = tested on: MDA-MB-435
U-251 = tested on: U-251
BT-549 = tested on: BT-549
HL-60 = tested on: HL-60
MOLT-4 = tested on: MOLT-4

For `O=C(C[n+]1ccc2ccccc2c1)c1ccc2ccc3ccccc3c2c1`, the GI50 (Hs-578T) was 8.32 µM (inactive), the GI50 (M14) was 2.22 µM (inactive) and the GI50 (HT-29) was 1.03 µM (active). The GI50 (NCI-H23) was 2.38 µM (inactive), the GI50 (UACC-257) was 2.04 µM (inactive) and the GI50 (UO-31) was 4.69 µM (inactive). The GI50 (K562) was 0.151 µM (active), the GI50 (COLO 205) was 1.07 µM (active) and the GI50 (ACHN) was 2.22 µM (inactive). The GI50 (OVCAR-4) was 3.84 µM (inactive), the GI50 (NCI-H226) was 7.94 µM (inactive) and the GI50 (OVCAR-3) was 4.15 µM (inactive). For the same compound, the GI50 (OVCAR-5) was 5.07 µM (inactive), the GI50 (A498) was 4.94 µM (inactive) and the GI50 (NCI-H460) was 0.741 µM (active). For the same compound, the GI50 (SNB-19) was 2.6 µM (inactive), the GI50 (A549) was 3.23 µM (inactive) and the GI50 (SNB-75) was 5.85 µM (inactive). For the same compound, the GI50 (SK-MEL-5) was 3.03 µM (inactive), the GI50 (UACC-62) was 2.99 µM (inactive) and the GI50 (NCI/ADR-RES) was 15.2 µM (inactive). The GI50 (IGROV-1) was 2.23 µM (inactive), the GI50 (MCF7) was 2.39 µM (inactive) and the GI50 (RXF 393) was 5.02 µM (inactive). For the same compound, the GI50 (PC-3) was 2.84 µM (inactive), the GI50 (HCT-116) was 0.959 µM (active) and the GI50 (SN12C) was 1.91 µM (inactive). The GI50 (EKVX) was 6.27 µM (inactive), the GI50 (TK-10) was 1.4 µM (inactive) and the GI50 (LOX IMVI) was 1.08 µM (active). For the same compound, the GI50 (NCI-H522) was 6.38 µM (inactive), the GI50 (SF-268) was 4.52 µM (inactive) and the GI50 (HOP-62) was 5.94 µM (inactive). For the same compound, the GI50 (T47D) was 4.74 µM (inactive), the GI50 (SF-295) was 0.824 µM (active) and the GI50 (MDA-MB-231) was 1.28 µM (inactive). For the same compound, the GI50 (OVCAR-8) was 3.21 µM (inactive), the GI50 (SK-MEL-2) was 4.56 µM (inactive) and the GI50 (SK-OV-3) was 6.82 µM (inactive). For the same compound, the GI50 (SF-539) was 0.483 µM (active), the GI50 (SK-MEL-28) was 2.12 µM (inactive) and the GI50 (SW-620) was 1.31 µM (inactive). For the same compound, the GI50 (DU-145) was 6.19 µM (inactive), the GI50 (SR) was 0.406 µM (active) and the GI50 (CAKI-1) was 4.9 µM (inactive). For the same compound, the GI50 (RPMI-8226) was 0.129 µM (active), the GI50 (MDA-N) was 0.647 µM (active) and the GI50 (HCT-15) was 5.07 µM. For the same compound, the GI50 (CCRF-CEM) was 0.815 µM (active), the GI50 (Malme-3M) was 7.71 µM (inactive) and the GI50 (HOP-92) was 1.62 µM (inactive). For the same compound, the GI50 (786-0) was 1.67 µM (inactive), the GI50 (KM12) was 1.33 µM (inactive) and the GI50 (HCC 2998) was 1.66 µM (inactive). The GI50 (MDA-MB-435) was 0.841 µM (active), the GI50 (U-251) was 2.21 µM (inactive) and the GI50 (BT-549) was 11.2 µM (inactive).
With `CCOC(=O)NC(Nc1ccc(C(=O)O)cc1)(C(F)(F)F)C(F)(F)F` the GI50 (Hs-578T) was > 100 µM (inactive), the GI50 (M14) was > 100 µM (inactive) and the GI50 (HT-29) was > 100 µM (inactive). For the same compound, the GI50 (NCI-H23) was > 100 µM (inactive), the GI50 (UACC-257) was > 100 µM (inactive) and the GI50 (UO-31) was > 100 µM (inactive). The GI50 (K562) was > 100 µM (inactive), the GI50 (COLO 205) was > 100 µM (inactive) and the GI50 (ACHN) was > 100 µM (inactive). For the same compound, the GI50 (NCI-H226) was > 100 µM (inactive), the GI50 (OVCAR-3) was > 100 µM (inactive) and the GI50 (OVCAR-5) was > 100 µM (inactive). For the same compound, the GI50 (A498) was > 100 µM (inactive), the GI50 (NCI-H460) was > 100 µM (inactive) and the GI50 (SNB-19) was > 100 µM (inactive). For the same compound, the GI50 (A549) was > 100 µM (inactive), the GI50 (SNB-75) was > 100 µM (inactive) and the GI50 (SK-MEL-5) was > 100 µM (inactive). The GI50 (UACC-62) was > 100 µM (inactive), the GI50 (NCI/ADR-RES) was > 100 µM (inactive) and the GI50 (IGROV-1) was > 100 µM (inactive). The GI50 (MCF7) was > 100 µM (inactive), the GI50 (RXF 393) was 60.8 µM (inactive) and the GI50 (PC-3) was > 100 µM (inactive). The GI50 (HCT-116) was > 100 µM (inactive), the GI50 (SN12C) was > 100 µM (inactive) and the GI50 (EKVX) was > 100 µM (inactive). The GI50 (HL-60) was > 100 µM (inactive), the GI50 (TK-10) was > 100 µM (inactive) and the GI50 (LOX IMVI) was > 100 µM (inactive). For the same compound, the GI50 (NCI-H522) was > 100 µM (inactive), the GI50 (SF-268) was > 100 µM (inactive) and the GI50 (HOP-62) was > 100 µM (inactive). The GI50 (T47D) was > 100 µM (inactive), the GI50 (SF-295) was > 100 µM (inactive) and the GI50 (MDA-MB-231) was > 100 µM (inactive). For the same compound, the GI50 (OVCAR-8) was > 100 µM (inactive), the GI50 (SK-MEL-2) was > 100 µM (inactive) and the GI50 (SK-OV-3) was > 100 µM (inactive). The GI50 (SF-539) was > 100 µM (inactive), the GI50 (SK-MEL-28) was > 100 µM (inactive) and the GI50 (SW-620) was > 100 µM (inactive). The GI50 (DU-145) was > 100 µM (inactive), the GI50 (SR) was > 100 µM (inactive) and the GI50 (CAKI-1) was > 100 µM (inactive). The GI50 (RPMI-8226) was > 100 µM (inactive), the GI50 (MDA-N) was > 100 µM (inactive) and the GI50 (HCT-15) was over 100 µM. The GI50 (CCRF-CEM) was > 100 µM (inactive), the GI50 (Malme-3M) was > 100 µM (inactive) and the GI50 (HOP-92) was > 100 µM (inactive). The GI50 (786-0) was > 100 µM (inactive), the GI50 (KM12) was > 100 µM (inactive) and the GI50 (MOLT-4) was > 100 µM (inactive). The GI50 (HCC 2998) was > 100 µM (inactive), the GI50 (MDA-MB-435) was > 100 µM (inactive) and the GI50 (U-251) was > 100 µM (inactive). The GI50 (BT-549) was > 100 µM (inactive).

Source: ChEMBL document CHEMBL1201862, “PubChem BioAssay data set” (2004)
